Measured values: patent publication US20070049564A1 (Wyeth, priority 2005, published 2007)
In brackets after ≈: the same amount, converted by molar mass. Read-outs that look alike come from different tables or passages of the source.

Experiments:
[1] = system: E. coli GC 2231; assay: MIC, broth microdilution; conditions: Escherichia coli, GC2231, E. coli GC 2231
[2] = system: E. coli GC 2235; assay: MIC, broth microdilution; conditions: Escherichia coli, GC2235, E. coli GC 2235
[3] = system: E. coli GC 2232; assay: MIC, broth microdilution; conditions: Escherichia coli, GC2232, E. coli GC 2232
Experimental: (§1) Antimicrobial susceptibility testing. The in vitro activities of the antibiotics are determined by the broth microdilution method as recommended by the National Committee for Clinical Laboratory Standards (NCCLS) (1). Mueller-Hinton II broth (MHBII)(BBL Cockeysville, Md.) is the medium employed in the testing procedures. Microtiter plates containing serial dilutions of each antimicrobial agent are inoculated with each organism to yield the appropriate density (10^5 CFU/ml) in a 100 μl final volume. The plates are incubated for 18-22 hours at 35° C. in ambient air.
Representative compounds were first incubated in mouse serum for an hour prior to the in vitro testing against a panel of selected gram-positive and gram-negative bacteria strains. All compounds were also pre-incubated in water for an hour prior to testing as control. Representative compounds of Formula I were incubated in human serum prior to MIC determination.

[4] = system: E. coli GC 2270; assay: MIC, broth microdilution; conditions: Escherichia coli, GC2270, E. coli GC 2270
[5] = system: E. coli GC 2271; assay: MIC, broth microdilution; conditions: Escherichia coli, GC2271, E. coli GC 2271
Experimental: as §1
Representative compounds were first incubated in mouse serum for an hour prior to the in vitro testing against a panel of selected gram-positive and gram-negative bacteria strains. All compounds were also pre-incubated in water for an hour prior to testing as control.

[6] = system: E. coli GC 4559; assay: MIC, broth microdilution; conditions: Escherichia coli, GC4559, E. coli GC 4559
[7] = system: E. coli GC 4560; assay: MIC, broth microdilution; conditions: Escherichia coli, GC4560, E. coli GC 4560
[8] = system: E. coli GC 3226; assay: MIC, broth microdilution; conditions: Escherichia coli, GC3226, E. coli GC 3226
[9] = system: E. coli GC 2203; assay: MIC, broth microdilution; conditions: Escherichia coli, GC2203, E. coli GC 2203
[10] = system: S. typhimurium GC 2172; assay: MIC, broth microdilution; conditions: Salmonella enterica, TYPHIMURIUM, S. typhimurium GC 2172
[11] = system: P. aeruginosa GC 2214; assay: MIC, broth microdilution; conditions: Pseudomonas aeruginosa, GC2214, P. aeruginosa GC 2214
[12] = system: S. aureus GC 6467; assay: MIC, broth microdilution; conditions: Staphylococcus aureus, GC6467, S. aureus GC 6467
[13] = system: S. aureus GC 2216; assay: MIC, broth microdilution; conditions: Staphylococcus aureus, GC2216, S. aureus GC 2216
[14] = system: S. aureus GC 6335; assay: MIC, broth microdilution; conditions: Staphylococcus aureus, GC6335, S. aureus GC 6335
[15] = system: E. faecalis GC 2267; assay: MIC, broth microdilution; conditions: Enterococcus faecalis, GC2267, E. faecalis GC 2267
[16] = system: E. faecalis GC 2242; assay: MIC, broth microdilution; conditions: Enterococcus faecalis, GC2242, E. faecalis GC 2242
[17] = system: E. faecium GC 4556; assay: MIC, broth microdilution; conditions: Enterococcus faecium, GC4556, E. faecium GC 4556
[18] = system: S. pneumoniae* GC 4465; assay: MIC, broth microdilution; conditions: Streptococcus pneumoniae, S. pneumoniae* GC 4465
[19] = system: S. agalactiae GC 4564; assay: MIC, broth microdilution; conditions: Streptococcus agalactiae, GC4564, S. agalactiae GC 4564
[20] = system: Staph. aureus Smith; assay: In vivo activity (oral, iv; ED50) against Staph. aureus Smith in mice
Experimental: Representative examples of compounds of Formula I were tested for the oral efficacy using S. aureus Smith in mice.

[21] = Staphylococcus aureus, in Mus musculus, po, read-out: ED50 Staph Smith SOD
[22] = iv, read-out: ED50 Staph Smith SIV

CCCN(CC(=O)Nc1cc(N(C)C)c2c(c1O)C(=O)C1=C(O)[C@]3(O)C(=O)C(C(N)=O)=C(O)[C@@H](N(C)C)[C@@H]3C[C@@H]1C2)C(=O)OCOC(=O)c1ccc(C)cc1 [Example 5, ({[(2-{[(5aR,6aS,7S,10aS)-9-(aminocarbonyl)-4,7-bis(dimethylamino)-1,8,10a,11-tetrahydroxy-10,12-dioxo-5,5a,6,6a,7,10,10a,12-octahydrotetracen-2-yl]amino}-2-oxoethyl)(propyl)amino]carbonyl}oxy)methyl 4-methylbenzoate]
MIC ([1]; Mouse Serum pre-incubation): 2 µg/mL (≈ 2.62 µM) | MIC ([1]; Water pre-incubation): 64 µg/mL (≈ 83.8 µM) | MIC ([2]; Mouse Serum pre-incubation): 1 µg/mL (≈ 1.31 µM) | MIC ([2]; Water pre-incubation): 16 µg/mL (≈ 20.9 µM) | MIC ([3]; Mouse Serum pre-incubation): 2 µg/mL (≈ 2.62 µM) | MIC ([3]; Water pre-incubation): 32 µg/mL (≈ 41.9 µM) | MIC ([4]; Mouse Serum pre-incubation): 1 µg/mL (≈ 1.31 µM) | MIC ([4]; Water pre-incubation): 16 µg/mL (≈ 20.9 µM) | MIC ([5]; Mouse Serum pre-incubation): 1 µg/mL (≈ 1.31 µM) | MIC ([5]; Water pre-incubation): 16 µg/mL (≈ 20.9 µM) | MIC ([6]; Mouse Serum pre-incubation): 2 µg/mL (≈ 2.62 µM) | MIC ([6]; Water pre-incubation): 32 µg/mL (≈ 41.9 µM) | MIC ([7]; Mouse Serum pre-incubation): 0.5 µg/mL (≈ 0.655 µM) | MIC ([7]; Water pre-incubation): 4 µg/mL (≈ 5.24 µM) | MIC ([8]; Mouse Serum pre-incubation): 2 µg/mL (≈ 2.62 µM) | MIC ([8]; Water pre-incubation): 32 µg/mL (≈ 41.9 µM) | MIC ([9]; Mouse Serum pre-incubation): 1 µg/mL (≈ 1.31 µM) | MIC ([9]; Water pre-incubation): 32 µg/mL (≈ 41.9 µM) | MIC ([10]; Mouse Serum pre-incubation): 8 µg/mL (≈ 10.5 µM) | MIC ([10]; Water pre-incubation): > 64 µg/mL | MIC ([11]; Mouse Serum pre-incubation): 32 µg/mL (≈ 41.9 µM) | MIC ([11]; Water pre-incubation): > 64 µg/mL | MIC ([12]; Mouse Serum pre-incubation): 2 µg/mL (≈ 2.62 µM) | MIC ([12]; Water pre-incubation): 4 µg/mL (≈ 5.24 µM) | MIC ([13]; Mouse Serum pre-incubation): 0.5 µg/mL (≈ 0.655 µM) | MIC ([13]; Water pre-incubation): 2 µg/mL (≈ 2.62 µM) | MIC ([14]; Mouse Serum pre-incubation): 0.5 µg/mL (≈ 0.655 µM) | MIC ([14]; Water pre-incubation): 1 µg/mL (≈ 1.31 µM) | MIC ([15]; Mouse Serum pre-incubation): 2 µg/mL (≈ 2.62 µM) | MIC ([15]; Water pre-incubation): 4 µg/mL (≈ 5.24 µM) | MIC ([16]; Mouse Serum pre-incubation): 1 µg/mL (≈ 1.31 µM) | MIC ([16]; Water pre-incubation): 2 µg/mL (≈ 2.62 µM) | MIC ([17]; Mouse Serum pre-incubation): 1 µg/mL (≈ 1.31 µM) | MIC ([17]; Water pre-incubation): 2 µg/mL (≈ 2.62 µM) | MIC ([18]; Mouse Serum pre-incubation): < 0.06 µg/mL | MIC ([18]; Water pre-incubation): 0.12 µg/mL (≈ 0.157 µM) | MIC ([19]; Mouse Serum pre-incubation): 0.5 µg/mL (≈ 0.655 µM) | MIC ([19]; Water pre-incubation): 0.5 µg/mL (≈ 0.655 µM) | ED50 ([20]; Staphylococcus aureus, in Mus musculus, iv, read-out: ED50 SIV (Staph aureus Smith)): 0.5 mg/kg | ED50 ([20]; Staphylococcus aureus, in Mus musculus, po, read-out: ED50 SOD (Staph aureus Smith)): 8.51 mg/kg | ED50 [20, 21]: 8.51 mg/kg | ED50 [20, 22]: 0.5 mg/kg

CCCN(CC(=O)Nc1cc(N(C)C)c2c(c1O)C(=O)C1=C(O)[C@]3(O)C(=O)C(C(N)=O)=C(O)[C@@H](N(C)C)[C@@H]3C[C@@H]1C2)C(=O)OCOC(=O)c1ccc(OC)cc1 [Example 6, ({[(2-{[(5aR,6aS,7S,10aS)-9-(aminocarbonyl)-4,7-bis(dimethylamino)-1,8,10a,11-tetrahydroxy-10,12-dioxo-5,5a,6,6a,7,10,10a,12-octahydrotetracen-2-yl]amino}-2-oxoethyl)(propyl)amino]carbonyl}oxy)methyl 4-methoxybenzoate]
MIC ([1]; Mouse Serum pre-incubation): 2 µg/mL (≈ 2.56 µM) | MIC ([1]; Water pre-incubation): 64 µg/mL (≈ 82.1 µM) | MIC ([2]; Mouse Serum pre-incubation): 1 µg/mL (≈ 1.28 µM) | MIC ([2]; Water pre-incubation): 8 µg/mL (≈ 10.3 µM) | MIC ([3]; Mouse Serum pre-incubation): 2 µg/mL (≈ 2.56 µM) | MIC ([3]; Water pre-incubation): 32 µg/mL (≈ 41 µM) | MIC ([4]; Mouse Serum pre-incubation): 1 µg/mL (≈ 1.28 µM) | MIC ([4]; Water pre-incubation): 8 µg/mL (≈ 10.3 µM) | MIC ([5]; Mouse Serum pre-incubation): 1 µg/mL (≈ 1.28 µM) | MIC ([5]; Water pre-incubation): 8 µg/mL (≈ 10.3 µM) | MIC ([6]; Mouse Serum pre-incubation): 2 µg/mL (≈ 2.56 µM) | MIC ([6]; Water pre-incubation): 16 µg/mL (≈ 20.5 µM) | MIC ([7]; Mouse Serum pre-incubation): 0.25 µg/mL (≈ 0.321 µM) | MIC ([7]; Water pre-incubation): 2 µg/mL (≈ 2.56 µM) | MIC ([8]; Mouse Serum pre-incubation): 2 µg/mL (≈ 2.56 µM) | MIC ([8]; Water pre-incubation): 16 µg/mL (≈ 20.5 µM) | MIC ([9]; Mouse Serum pre-incubation): 2 µg/mL (≈ 2.56 µM) | MIC ([9]; Water pre-incubation): 16 µg/mL (≈ 20.5 µM) | MIC ([10]; Mouse Serum pre-incubation): 8 µg/mL (≈ 10.3 µM) | MIC ([10]; Water pre-incubation): > 64 µg/mL | MIC ([11]; Mouse Serum pre-incubation): 32 µg/mL (≈ 41 µM) | MIC ([11]; Water pre-incubation): > 64 µg/mL | MIC ([12]; Mouse Serum pre-incubation): 2 µg/mL (≈ 2.56 µM) | MIC ([12]; Water pre-incubation): 4 µg/mL (≈ 5.13 µM) | MIC ([13]; Mouse Serum pre-incubation): 0.5 µg/mL (≈ 0.641 µM) | MIC ([13]; Water pre-incubation): 2 µg/mL (≈ 2.56 µM) | MIC ([14]; Mouse Serum pre-incubation): 0.5 µg/mL (≈ 0.641 µM) | MIC ([14]; Water pre-incubation): 2 µg/mL (≈ 2.56 µM) | MIC ([15]; Mouse Serum pre-incubation): 1 µg/mL (≈ 1.28 µM) | MIC ([15]; Water pre-incubation): 4 µg/mL (≈ 5.13 µM) | MIC ([16]; Mouse Serum pre-incubation): 1 µg/mL (≈ 1.28 µM) | MIC ([16]; Water pre-incubation): 2 µg/mL (≈ 2.56 µM) | MIC ([17]; Mouse Serum pre-incubation): 1 µg/mL (≈ 1.28 µM) | MIC ([17]; Water pre-incubation): 2 µg/mL (≈ 2.56 µM) | MIC ([18]; Mouse Serum pre-incubation): 0.12 µg/mL (≈ 0.154 µM) | MIC ([18]; Water pre-incubation): 0.25 µg/mL (≈ 0.321 µM) | MIC ([19]; Mouse Serum pre-incubation): 0.5 µg/mL (≈ 0.641 µM) | MIC ([19]; Water pre-incubation): 0.5 µg/mL (≈ 0.641 µM) | ED50 [20, 21]: 20.1 mg/kg | ED50 [20, 22]: 0.87 mg/kg
